# Test results from patent publication US8591865B2, “Renal function analysis method and apparatus” (Pharmacophotonics, Inc., priority 2008, dated 2013).
# “And” between values parts separate entries of the source, which are not always exact repeats. Equal values may be shown once. “Also recorded” adds a separate entry of the source.
# Tests used:
# [1] = GFR in swine by iohexol plasma disappearance; assay type: in vivo, Osawbaw swine; conditions: same swine
# [2] = GFR by iohexol plasma clearance in gentamycin-induced AKI dogs; assay type: in vivo, dog
# Experimental: EDTA-anticoagulated blood was collected at 0, 5, 10, 20, 30, 60, 180, 240 and 300 minutes post-injection, centrifuged within 3 hours, and stored at -20° C.
# [3] = GFR in dog by iohexol analysis; conditions: 33.0 kg dog
# Excerpt: The higher noise in the data was caused by the movement during the data collection as the dog was not anesthetized.
# [4] = Intravital 2-photon microscopy of plasma clearance (fluorescence intensity / intensity ratio in kidney blood vessels) after bolus infusion; conditions: kidney of normal male rat, bolus IV infusion of dye mixture, 12-200 seconds
# Excerpt: These images were taken as function of time after a bolus intravenous infusion of a dye mixture containing a FITC-inulin (5.5 kD) and 500 kD dextran labeled with a sulforhodamine 101, i.e. Texas Red®. […] A red blood cell (RBC) appears as a dark object as it excludes dye.
# The intensity ratio from the blood vessels in FIG. 3 changes over time with a change of relative concentrations of the two dyes.
# Each data point in FIG. 5 was the average ratio value of the same region from a blood vessel extracted from an image time-series (such as the images shown in FIG. 3). The data points were plotted every 0.5 seconds up to 200 seconds.
# dogs = experiment: Gentamycin-induced acute kidney injury in dogs: serum creatinine, BUN, USG, UPC; assay type: in vivo, dog; conditions: individual dogs; for Creatinine: gentamycin 10 mg/Kg IV q8 hours
# Excerpt: Five spayed female young adult hound-type mogrel dogs were confirmed to be in good health based on physical examination, complete blood count, blood chemistry analysis, urinalysis, urine protein-to-creatine ratio (UPC) and aerobic urine culture.
compound,measurement,setting,value
CC(=O)N(CC(O)CO)c1c(I)c(C(=O)NCC(O)CO)c(I)c(C(=O)NCC(O)CO)c1I (stereo not drawn) [iohexol],GFR obtained using iohexol samples drawn for six hours,[1],2.02 mL/min/kg
same,GFR: Iohexol Plasma Clearance,"[2]; Day 0, 150 mg/kg iohexol IV, individual dogs (repeat results for two dogs), 150 mg/kg",2.77 mL/min/kg and 4.00 mL/min/kg and 3.71 mL/min/kg and 3.82 mL/min/kg and 4.40 mL/min/kg
same,GFR: Iohexol Plasma Clearance,"[2]; Day 3 of gentamycin, individual dogs",2.00 mL/min/kg and 3.45 mL/min/kg and 2.05 mL/min/kg and 4.17 mL/min/kg and 3.06 mL/min/kg
same,GFR: Iohexol Plasma Clearance,"[2]; Day 6 of gentamycin, individual dogs",2.78 mL/min/kg and 2.05 mL/min/kg and 2.46 mL/min/kg and 1.44 mL/min/kg and 3.36 mL/min/kg
same,GFR: Iohexol Plasma Clearance,"[2]; Day 9 of gentamycin, individual dogs",1.87 mL/min/kg and 0.10 mL/min/kg and 1.49 mL/min/kg and 2.47 mL/min/kg
same,clearance,"[2]; hound-type mongrel, dog, plasma, iv, 150 mg/kg, GFR: Iohexol Plasma Clearance, Day 0, 150 mg/kg iohexol IV, individual dogs (repeat results for two dogs)",3.28 mL/min/kg
same,GFR obtained from iohexol analysis,[3],4.50 mL/min/kg
fluorescein isothiocyanate-inulin [FITC-inulin],glomerular filtration / plasma clearance seen as capillary fluorescence intensity over time,[4],rapidly filtered into the proximal tubular lumen; also recorded: immediate plasma clearance
gentamycin,BUN,dogs; Day 0 (baseline),20 mg/dl (2×) and 14 mg/dl and 16 mg/dl and 9 mg/dl
same,UPC (urine protein-to-creatine ratio),dogs; Day 0 (baseline),0.1 (4×) and 0.2
same,USG (urine specific gravity),dogs; Day 0 (baseline),1.014 and 1.030 and 1.048 and 1.044 and 1.052
same,Creatinine,"dogs; Day 0 (first day of injection, baseline)",0.8 mg/dl and 1.1 mg/dl and 0.9 mg/dl (2×) and 0.7 mg/dl
same,Creatinine,dogs; Day 3,0.9 mg/dl (2×) and 1.0 mg/dl (2×) and 0.8 mg/dl
same,BUN,dogs; Day 3,16 mg/dl and 12 mg/dl (2×) and 15 mg/dl and 14 mg/dl
same,UPC (urine protein-to-creatine ratio),dogs; Day 3,0.5 and 1.0 and 0.2 and 0.3 (2×)
same,USG (urine specific gravity),dogs; Day 3,1.008 and 1.014 (2×) and 1.000 and 1.010
same,Creatinine,dogs; Day 6,1.2 mg/dl and 1.5 mg/dl and 1.4 mg/dl and 1.0 mg/dl (2×)
same,BUN,dogs; Day 6,22 mg/dL and 15 mg/dL and 16 mg/dL and 10 mg/dL and 14 mg/dL
same,UPC (urine protein-to-creatine ratio),dogs; Day 6,0.5 (2×) and 0.0 (2×) and 0.6
same,USG (urine specific gravity),dogs; Day 6,1.009 and 1.003 and 1.007 and 1.005 and 1.010
same,Creatinine,dogs; Day 9,1.5 mg/dL and 5.3 mg/dL and 1.9 mg/dL and 1.6 mg/dL and 1.1 mg/dL
same,BUN,dogs; Day 9,16 mg/dl (2×) and 97 mg/dl and 18 mg/dl and 14 mg/dl
same,UPC (urine protein-to-creatine ratio),dogs; Day 9,2.1 and 2.8 and 3.1 and 1.7 and 1.6
same,USG (urine specific gravity),dogs; Day 9,1.006 (2×) and 1.011 and 1.004 and 1.005
